EP1628646B1, “USE OF PPAR-GAMMA AGONISTS AS ANTI-INFECTIVE AGENTS” (priority 2003, dated 2004)

Assays:
[1] = system: macrophages; test: Production of oxidants by cultured macrophages, luminol chemiluminescence; assay type: cell-based, souris; settings: for Production d'agents oxydants, avec ANS / Production d'agents oxydants, avec ODN / Production d'agents oxydants, sans antisens: 1 h; for Production d'agents oxydants, avec ANS: macrophages incubated 3 days with non-specific antisense ANS, control 6972 ± 90; for Production d'agents oxydants, avec ODN: macrophages incubated 3 days with specific antisense ODN, control 6795 ± 178; for Production d'agents oxydants, sans antisens: without antisense, control 6737 ± 139
Description: Concernant le traitement à l'antisens ODN, une séquence complémentaire à la région 3' non traduite de l'ARNm du MMR (Yamamoto et al., Infect Immun, 1997, 65:1077-82), on incube l'antisens ODN (100 nM) avec 10 µg de lipide cationique Lipofectin (GIBCO, France) à 37°C pendant 5 min selon la méthode Capacciolis et al. (Biochem Biophys Res Commun, 1998, 197:818-25) puis on l'ajoute aux macrophages cultivés dans le DMEM sans sérum. Les cellules sont incubées pendant 4 heures à 37°C avec 5 % de CO2 atmosphérique. Le milieu est remplacé par du SFM contenant l'antisens ODN mais sans Lipofectin. Les cultures sont incubées pendant 3 jours avec un changement journalier du milieu. La concentration de l'antisens ODN utilisée n'entraîne aucune toxicité significative sur les macrophages. Les macrophages non traités et les macrophages traités avec la Lipofectin seule servent de contrôle. La séquence nucléique de l'antisens ODN est exposée dans le tableau 2. Le même traitement est réalisé avec un antisens non spécifique de l'ARNm du MMR, l'antisens ANS dont la séquence nucléique est exposée dans le tableau 2.
Pour les tests de production d'agents oxydants, l'explosion respiratoire oxygène-dépendante des macrophages traités par les agonistes de PPARγ est mesurée par chimiluminescence. Les macrophages (2.10^5) sont transférés sur des boîtes de culture de 5 mm de diamètre. Après activation des cellules, la production d'agents oxydants par les macrophages, en présence ou en absence de C. albicans, est mesurée par chimiluminescence en présence de luminol à 37°C. L'émission de chimiluminescence est enregistrée en continu pendant 1 heure après incubation des cellules avec le luminol (66 µM). Pour évaluer la production de l'anion superoxyde (O2^-), la chimiluminescence est mesurée en présence de SOD, un inhibiteur spécifique de la production d'anion superoxyde. Pour évaluer la production d'oxyde nitrique (NO), la chimiluminescence est mesurée en présence de la L-NMMA (NG-monométhyl-arginine, un compétiteur spécifique de la L-arginine pour la production de NO). Aucun des inhibiteurs n'affecte la viabilité aux concentrations utilisées.
Les analyses statistiques se basent sur la mesure de la surface sous la courbe et sont exprimées en coups x secondes.
La capacité des macrophages à produire de l'anion superoxyde et du monoxyde d'azote et leur modulation par la 15d-PGJ2 ont été également étudiées par la méthode de chimiluminescence qui permet d'évaluer non seulement la production d'anions superoxydes mais aussi celle du peroxynitrite produit au cours de l'interaction entre le monoxyde d'azote et l'anion superoxyde.
Afin d'évaluer la production d'anion superoxyde, la chimiluminescence a été mesurée- en présence ou non de SOD (enzyme métabolisant O2^- en H2O2) alors que la production de monoxyde d'azote est évaluée en présence d'un compétiteur de l'arginine qui est la L-NMMA. Tableau 3 : Effet des ligands agonistes de PPARγ sur la production d'agents oxydants par les macrophages en présence ou en absence de levure. L'évaluation de la production d'agents oxydants a été déterminée sur des macrophages en culture par la technique de chimiluminescence.
Cette étude a été réalisée afin de déterminer si l'augmentation de la production d'agents oxydants sous l'effet des agonistes de PPARγ dépendait ou non de la modulation des récepteurs mannose par ces différents traitements. Dans cet objectif, la modulation de la production d'agents oxydants par les macrophages transfectés par l'antisens spécifique des ARNm des récepteurs mannose a été étudiée. Après traitement avec les agonistes de PPARγ, le dosage de la quantité d'agents oxydants produits par les macrophages transfectés a été réalisé par chimiluminescence. Les résultats sont présentés dans le tableau 5. Tableau 5 : Implication du récepteur mannose dans la production d'agents oxydants des macrophages traités par les ligands de PPARγ. […]

[2] = system: macrophages péritonéaux; test: Phagocytosis of C. albicans by peritoneal macrophages from infected mice treated in vivo; settings: treated i.p. (15d-PGJ2 0,01 µmoles, rosiglitazone 0,1 µmoles), 1 h challenge 1:1
Description: L'étude in vitro a été réalisée sur des lots de 10 souris, soit immunocompétentes (SWISS) ou immunodéficientes (RAG-2), qui ont été infectées par C. albicans.
(§1) Les souris hébergées dans des cages stériles ont été infectées par gavage de 500 µl d'une suspension de levures (2.10^7 cfu.ml^-1).
(§2) Ces injections ont été renouvelées tous les jours durant 5 jours.
Après une incubation de 2 heures à l'étuve à 37°C, 5 % CO2, les cellules non adhérentes ont été éliminées par deux rinçages en PBS.
Afin d'évaluer la capacité des macrophages à phagocyter C. albicans, une technique basée sur l'incorporation de nucléotides radioactifs (Uracile tritié) au niveau de l'ARN des levures en voie de multiplication a été réalisée. Les levures pré-marquées sont déposées sur les tapis macrophagiques et mises à incuber à 37°C sous 5 % CO2. […] Sachant que la radioactivité mesurée dans le lysat est proportionnelle à la quantité de levures phagocytées et que celle mesurée dans les surnageants est proportionnelle à la quantité de levures externes, le pourcentage de levures phagocytées par rapport à la quantité de levures totales sera déterminé selon la formule suivante : %Phagocytose = (dpmlysat)/(dpmlysat + dpmsurnageant) [formula]

[3] = system: récepteur mannose; test: Mannose receptor expression on macrophages from mice treated in vivo, flow cytometry; settings: cells from SWISS and RAG-2 mice treated in vivo; figure 8
Source text: as §2
La quantité de molécule de mBSA fixée, reflet direct de la quantité de récepteurs mannose présente sur les cellules, a été analysée à l'aide d'un cytomètre en flux (FACScalibur, Becton Dickinson).

[4] = system: cellules RAW 264.7; test: Mannose receptor expression on RAW 264.7 cells transfected with CMV-luciférase or CMV-PPARγ, flow cytometry; settings: 24 h, 1 µM 15d-PGJ2, 5 µM ciglitazone, 5 µM rosiglitazone; for Moyenne géométrique de l'intensité de fluorescence, CMV-PPAR-γ: RAW 264.7 transfected with CMV-PPARγ, control 53,87; for Moyenne géométrique de l'intensité de fluorescence, CMV-LUC: RAW 264.7 transfected with CMV-luciférase, control 47,51
[5] = system: C. albicans; test: Gastrointestinal candidiasis in mice: number of yeasts in organs by CFU and real-time quantitative PCR; settings: SWISS and RAG-2 mice, oesophage, estomac, caecum, vs untreated mice, figure 10
Description: En parallèle, ce même protocole a été réalisé sur des souris SWISS immunocompétentes (Centre d'élevage - Etablissement Janvier, France).
as §1, §2
En cours et en fin d'expérimentation, des prélèvements sanguins ont été effectués afin de suivre la présence des levures dans le sang des souris. […] Au terme du protocole, les souris ont été euthanasiées et les différents organes ont été prélevés stérilement en vue de quantifier le nombre de levures présentes dans les différents organes par CFU et PCR quantitative en temps réel.
Pour quantifier le nombre de levures présentes dans les différents organes par CFU, après homogénéisation de chaque tissu, plusieurs dilutions sont réalisées et ensemencées dans des boîtes de culture. Les boîtes sont incubées à 35°C pendant 24 à 48 heures et le nombre de colonies est alors compté.
Pour quantifier le nombre de levures présentes dans les différents organes par PCR, après homogénéisation des différents organes, l'ADN total est extrait par la méthode phénol/chloroforme et soumis à une Q-PCR en temps réel. […] La détection se fait par hybridation de deux sondes marquées spécifiques de C. albicans (transfert de fluorescence).

[6] = system: macrophages; test: Production of oxidants by macrophages from mice treated in vivo, chemiluminescence; parameters: species or system souris; settings: macrophages from SWISS and RAG-2 mice treated in vivo, vs control mice; figure 7
Source text: Afin d'évaluer la production d'agents oxydants (radicaux libres oxygénés et monoxyde d'azote) par les macrophages après la mise en culture des macrophages, les activités conjointes de la NADPH oxydase et de la NOsynthase inductible sont mesurées par chimiluminescence en présence d'une sonde chimiluminogène, Luminol (SIGMA, France) : 5-amino2,3-diydro-1,4-phtalazine-dione. La production de chimiluminescence sera analysée avec un luminomètre (Wallac Victor II, Finlande) piloté par un ordinateur. Le luminol permet, en présence d'agents oxydants, l'émission de photons captés par le photomultiplicateur de la chambre noire du luminomètre thermostaté à 37°C et transformés en impulsions électriques quantifiables. Les valeurs de chimiluminescence seront enregistrées continuellement pendant 1 heure après incubation des cellules avec le luminol ([…]) et en présence ou non de levures.
L'évaluation de la production d'agents oxydants par les macrophages, en présence ou en absence de la levure, a été déterminée sur des macrophages en culture par la technique de chimiluminescence. La figure 7 expose les résultats obtenus, en nombre de coups secondes (C x S) comptabilisés pendant 1 heure, pour chaque test.

[7] = system: récepteur mannose; test: Mannose receptor expression on macrophages, FITC-mBSA flow cytometry; assay type: cell-based, souris; settings: antagonist 0,1 µM, 24 h; figure 5
Description: Pour les essais de cytométrie en flux, les macrophages sont rincés au PBS glacé. Le marquage des MMR est réalisé pendant une heure, dans la glace, à la manière d'un ligand spécifique conjugué avec de l'albumine bovine mannosylée marquée à la fluorescéine FITC (840 nM) (SIGMA, France). Afin de faciliter la sélection des populations de cellules viables, une coloration à l'iodure de propidium est réalisée. Toutes les analyses sont effectuées par le FACScalibur (Becton-Dickinson) en utilisant le logiciel CellQuest.
Dans une deuxième étape, l'induction de l'expression du récepteur mannose des macrophages péritonéaux murins sous l'effet des différents traitements a été étudiée par cytométrie de flux en présence d'un antagoniste irréversible de PPARγ, le GW 9662.
Ces résultats sont confirmés par la figure 5 qui montre que l'augmentation de l'expression du récepteur mannose à la surface des macrophages sous l'effet de la 15d-PGJ2 est antagonisée par le GW 9662.
Pour ce faire, les macrophages ont été traités pendant 3 jours avec l'antisens spécifique de l'ARNm du récepteur mannose (ODN). […] Les cellules ont été ensuite incubées avec la mBSA marquée au FITC, puis analysées par cytométrie en flux. L'intensité de la fluorescence analysée est représentée à la figure 6.

[8] = system: macrophages péritonéaux; test: Phagocytosis of [3H]uracil-labelled C. albicans by treated peritoneal macrophages in vitro; assay type: cell-based, souris; settings: effect of the PPARγ antagonist added; figure 2
Description: Les macrophages, quant à eux, proviennent soit du péritoine de souris femelles SWISS (Centre d'élevage, Etablissement Janvier, France), soit du sang périphérique de donneurs sains. Ces macrophages, de souris ou d'humain, sont cultivés dans un milieu de culture SFM ("serum-free medium") optimisé pour la culture des macrophages, commercialisé par la société GibcoBRL, France. L'adhésion des cellules se produit après environ 2 heures de culture à 37°C sous atmosphère à 5 % de CO2. Les cellules n'adhérant pas à la boîte de culture sont éliminées par rinçage au PBS (GibcoBRL, France).
Pour étudier le mécanisme d'ingestion de C. albicans par les macrophages, des levures préalablement marquées par [^3H]uracile sont utilisées. Trois colonies de C. albicans sont dispersées dans 1 ml de bouillon Sabouraud contenant 150 µCi de [^3H]uracile. Après 24 heures de culture à 37°C sous agitation, les blastospores marqués sont centrifugés et resuspendus dans le SFM enrichi avec 1,8 % de glucose. Pour chaque essai, les monocouches de macrophages cultivées sur les plaques 24 puits sont traitées avec les agonistes de PPARγ pendant 20 heures, puis infectées avec C. albicans marqué et viable (dans une proportion macrophages/levures de 1:1) et laissées à incuber pendant 1 heure à 37°C, puis 2 heures à 5°C. Soumis à 5°C, les mécanismes de phagocytose sont bloqués. […]

| augmentation de l'expression du récepteur mannose à la surface des macrophages sous l'effet de la 15d-PGJ2 [7] | Structure (SMILES) | Production d'agents oxydants, avec ANS [1] | Production d'agents oxydants, avec ODN [1] | Production d'agents oxydants, sans antisens [1] | Production d'agents oxydants pendant 1 heure, + Levures L-NMMA ([1]; with yeast, in presence of L-NMMA) | Production d'agents oxydants pendant 1 heure, + Levures SOD ([1]; with yeast, in presence of SOD) | Production d'agents oxydants pendant 1 heure, + Levures ([1]; with yeast, no inhibitor) | Production d'agents oxydants pendant 1 heure, - Levure ([1]; without yeast) | Index de phagocytose, RAG-2 ([2]; RAG-2 mice infected with C. albicans, control 59,82 ± 2,43) | Index de phagocytose, SWISS ([2]; SWISS mice infected with C. albicans, control 42,97 ± 1,20) | quantité d'albumine bovine mannosylée marquée à la fluorescéine présente sur les macrophages [3] | Moyenne géométrique de l'intensité de fluorescence, CMV-PPAR-γ [4] | Moyenne géométrique de l'intensité de fluorescence, CMV-LUC [4] | colonisation des différents organes (nombre de levures) [5] | production basale d'agents oxydants par les macrophages [6] | augmentation de la capacité de phagocytose des macrophages traités par les agonistes de PPARγ [8] |
| --- | --- | --- | --- | --- | --- | --- | --- | --- | --- | --- | --- | --- | --- | --- | --- | --- |
|  | CCCCCC=CC=C1C(=O)C=CC1CC=CCCCC(=O)O (centres unmarked) [15d-PGJ2, 15-déoxy-Δ^12,14-prostaglandine J2] | 9678 ± 106 coups x secondes | 7012 ± 98 coups x secondes | 9161 ± 85 coups x secondes | 14258 ± 216 coups x secondes | 7228 ± 212 coups x secondes | 13905 ± 328 coups x secondes | 7469 ± 238 coups x secondes | 76,32 ± 1,89 | 65,26 ± 2,11 | significativement augmentée | 73 | 44,29 | diminution significative de la colonisation | la même quantité basale d'agents oxydants |  |
| antagonisée | O=C(Nc1ccccc1)c1cc([N+](=O)[O-])ccc1Cl [GW 9662] |  |  |  |  |  |  |  |  |  |  |  |  |  |  | inhibée |
|  | CC1(COc2ccc(CC3SC(=O)NC3=O)cc2)CCCCC1 (centres unmarked) [ciglitazone] | 8322 ± 183 coups x secondes | 7109 ± 155 coups x secondes | 8398 ± 104 coups x secondes |  |  |  |  |  |  |  | 64,3 | 38,51 |  |  |  |
|  | CN(CCOc1ccc(CC2SC(=O)NC2=O)cc1)c1ccccn1 (centres unmarked) [rosiglitazone] | 8813 ± 190 coups x secondes | 7197 ± 77 coups x secondes | 8960 ± 179 coups x secondes |  |  |  |  |  |  |  | 61,51 | 37,94 |  |  |  |
